Test results taken from publication PMC12203862, “BroadAMP-GPT: AI-Driven generation of broad-spectrum antimicrobial peptides for combating multidrug-resistant ESKAPE pathogens” (Gut Microbes, 2025).
≈ marks a conversion by molar mass, not a printed value.

What was measured:
[1] = system: S. aureus ATCC 29213; assay: microbe, parasite or virus in culture; type: cell-based; conditions: Staphylococcus aureus, ATCC29213; Table 1; S. aureus ATCC 29213; broth microdilution, CLSI M100-ED34; read-out: MIC
[2] = system: A. baumannii 7979; assay: microbe, parasite or virus in culture; type: cell-based; conditions: Acinetobacter baumannii; Table 1; A. baumannii 7979; broth microdilution; read-out: MIC
Protocol: (§1) Bacterial strains and growth conditions: All Gram-negative and Gram-positive bacterial strains (Supplementary Table S8) were cultured in Luria-Bertani (LB) or trypticase soy broth (TSB) agar plates, respectively, and incubated overnight at 37 °C unless specifically indicated. A single colony of the tested bacterial strains was inoculated into medium broth with shaking at 220 rpm for further experiments.
(§2) Minimal inhibitory concentrations: Antimicrobial susceptibility testing was performed by broth microdilution method for AMPs against Gram-positive and Gram-negative pathogens above mentioned, following the methods of document CLSI M100-ED34.[43] The MICs were defined as the lowest concentrations that inhibit visible growth of the tested bacteria. E. coli ATCC 25,922 and S. aureus ATCC 29,213 were served as quality controls.

[3] = system: A. baumannii AB11; assay: microbe, parasite or virus in culture; type: cell-based; conditions: Acinetobacter baumannii; Table 1; A. baumannii AB11; broth microdilution; read-out: MIC
Protocol: as §1, §2

[4] = system: E. coli ATCC 25922; assay: microbe, parasite or virus in culture; type: cell-based; conditions: Escherichia coli, ATCC25922; Table 1; E. coli ATCC 25922; broth microdilution; read-out: MIC
Protocol: as §1, §2

[5] = system: E. faecalis ES01; assay: microbe, parasite or virus in culture; type: cell-based; conditions: Enterococcus faecalis; Table 1; E. faecalis ES01; ermB, vanB; broth microdilution; read-out: MIC
Protocol: as §1, §2

[6] = system: E. faecalis J2; assay: microbe, parasite or virus in culture; type: cell-based; conditions: Enterococcus faecalis; Table 1; E. faecalis J2; ermB, optrA; broth microdilution; read-out: MIC
Protocol: as §1, §2

[7] = system: E. faecalis JH2-2; assay: microbe, parasite or virus in culture; type: cell-based; conditions: Enterococcus faecalis, JH22; Table 1; E. faecalis JH2-2; broth microdilution; read-out: MIC
Protocol: as §1, §2

[8] = system: E. faecalis SF23-1; assay: microbe, parasite or virus in culture; type: cell-based; conditions: Enterococcus faecalis, SF231; Table 1; E. faecalis SF23-1; ermB, tetL, cfr; broth microdilution; read-out: MIC
Protocol: as §1, §2

[9] = system: E. faecium HFY01; assay: microbe, parasite or virus in culture; type: cell-based; conditions: Enterococcus faecium; Table 1; E. faecium HFY01; broth microdilution; read-out: MIC
Protocol: as §1, §2

[10] = system: E. faecium MC38; assay: microbe, parasite or virus in culture; type: cell-based; conditions: Enterococcus faecium; Table 1; E. faecium MC38; ermB, optrA; broth microdilution; read-out: MIC
Protocol: as §1, §2

[11] = system: E. faecium QF31; assay: microbe, parasite or virus in culture; type: cell-based; conditions: Enterococcus faecium; Table 1; E. faecium QF31; ermB, cfr; broth microdilution; read-out: MIC
Protocol: as §1, §2

[12] = system: K. pneumoniae 9-1; assay: microbe, parasite or virus in culture; type: cell-based; conditions: Klebsiella pneumoniae, 91; Table 1; K. pneumoniae 9-1; broth microdilution; read-out: MIC
Protocol: as §1, §2

[13] = system: P. aeruginosa PA14; assay: microbe, parasite or virus in culture; type: cell-based; conditions: Pseudomonas aeruginosa; Table 1; P. aeruginosa PA14; broth microdilution; read-out: MIC
Protocol: as §1, §2

[14] = system: P. aeruginosa PAO1; assay: microbe, parasite or virus in culture; type: cell-based; conditions: Pseudomonas aeruginosa; Table 1; P. aeruginosa PAO1; broth microdilution; read-out: MIC
Protocol: as §1, §2

[15] = system: S. agalactiae DL03; assay: microbe, parasite or virus in culture; type: cell-based; conditions: Streptococcus agalactiae; Table 1; S. agalactiae DL03; ermB; broth microdilution; read-out: MIC
Protocol: as §1, §2

[16] = system: S. aureus M147-2; assay: microbe, parasite or virus in culture; type: cell-based; conditions: Staphylococcus aureus, M1472; Table 1; S. aureus M147-2; ermB, tetL, cfr; broth microdilution; read-out: MIC
Protocol: as §1, §2

[17] = system: S. aureus M92-1; assay: microbe, parasite or virus in culture; type: cell-based; conditions: Staphylococcus aureus, M921; Table 1; S. aureus M92-1; ermB, tetL, optrA; broth microdilution; read-out: MIC
Protocol: as §1, §2

[18] = system: S. aureus YZSA-15; assay: microbe, parasite or virus in culture; type: cell-based; conditions: Staphylococcus aureus, YZSA15; Table 1; S. aureus YZSA-15; ermC, vanB; broth microdilution; read-out: MIC
Protocol: as §1, §2

[19] = system: S. aureus YZSA-21; assay: microbe, parasite or virus in culture; type: cell-based; conditions: Staphylococcus aureus, YZSA21; Table 1; S. aureus YZSA-21; ermC; broth microdilution; read-out: MIC
Protocol: as §1, §2

[20] = system: S. aureus YZSA-24; assay: microbe, parasite or virus in culture; type: cell-based; conditions: Staphylococcus aureus, YZSA24; Table 1; S. aureus YZSA-24; ermC, mecA; broth microdilution; read-out: MIC
Protocol: as §1, §2

[21] = system: S. pyogenes DL02; assay: microbe, parasite or virus in culture; type: cell-based; conditions: Streptococcus pyogenes; Table 1; S. pyogenes DL02; ermB; broth microdilution; read-out: MIC
Protocol: as §1, §2

[22] = system: S. suis SH0918; assay: microbe, parasite or virus in culture; type: cell-based; conditions: Streptococcus suis; Table 1; S. suis SH0918; ermB, tetO, optrA; broth microdilution; read-out: MIC
Protocol: as §1, §2

[23] = system: S. suis P1/7; assay: microbe, parasite or virus in culture; conditions: Streptococcus suis, P1/7
Protocol: as §1
as §2, with “bacteria.” for “bacteria. E. coli ATCC 25,922 and S. aureus ATCC 29,213 were served as quality controls.”

[24] = system: S. enteritis S1; assay: organism not typed; type: cell-based; conditions: Table 1; S. enteritis S1; broth microdilution; read-out: MIC
Protocol: as §1, §2

Row | MIC [1] [µg/mL] | MIC [2] [µg/mL] | MIC [3] [µg/mL] | MIC [4] [µg/mL] | MIC [5] [µg/mL] | MIC [6] [µg/mL] | MIC [7] [µg/mL] | MIC [8] [µg/mL] | MIC [9] [µg/mL] | MIC [10] [µg/mL] | MIC [11] [µg/mL] | MIC [12] [µg/mL] | MIC [13] [µg/mL] | MIC [14] [µg/mL] | MIC [15] [µg/mL] | MIC [16] [µg/mL] | MIC [17] [µg/mL] | MIC [18] [µg/mL] | MIC [19] [µg/mL] | MIC [20] [µg/mL] | SMILES | also measured
1 | 1 (≈ 2.09 µM) | > 64 | < 0.06 | 4 (≈ 8.38 µM) | > 64 | > 64 | 4 (≈ 8.38 µM) | 8 (≈ 16.8 µM) | < 0.06 | > 64 | > 64 | > 64 | < 0.06 | 0.125 (≈ 0.262 µM) | 16 (≈ 33.5 µM) | > 64 | > 64 | 0.5 (≈ 1.05 µM) | 0.5 (≈ 1.05 µM) | 1 (≈ 2.09 µM) | CNC(C)C1CCC(N)C(OC2C(N)CC(N)C(OC3OCC(C)(O)C(NC)C3O)C2O)O1 (stereo not drawn) [GEN, gentamicin] | MIC [21]: 1 µg/mL (≈ 2.09 µM); MIC [22]: 16 µg/mL (≈ 33.5 µM); MIC [23]: 4 µg/mL (≈ 8.38 µM); MIC [24]: 0.25 µg/mL (≈ 0.523 µM)
2 | 1 (≈ 2.86 µM) | > 64 | < 0.06 | 2 (≈ 5.72 µM) | 16 (≈ 45.8 µM) | 16 (≈ 45.8 µM) | 16 (≈ 45.8 µM) | 16 (≈ 45.8 µM) | 1 (≈ 2.86 µM) | 32 (≈ 91.6 µM) | 32 (≈ 91.6 µM) | > 64 | > 64 | > 64 | 0.25 (≈ 0.715 µM) | 16 (≈ 45.8 µM) | 16 (≈ 45.8 µM) | 2 (≈ 5.72 µM) | 1 (≈ 2.86 µM) | > 64 | CC1(C)S[C@@H]2[C@H](NC(=O)[C@H](N)c3ccccc3)C(=O)N2[C@H]1C(=O)O [AMP, Ampicillin] | MIC [21]: 0.5 µg/mL (≈ 1.43 µM); MIC [22]: 0.25 µg/mL (≈ 0.715 µM); MIC [23]: 0.5 µg/mL (≈ 1.43 µM); MIC [24]: 32 µg/mL (≈ 91.6 µM)
